Values quoted from earlier work, collected in US4794170A (priority 1984, dated 1988).

Key:
[1] = tested on: hepatocytes; conditions: mouse
[2] = tested on: virus B; conditions: chronical hepatitis induced by virus B

**Q.** For “ara-A-glut-AF: ara-A glutarate bonded to the asialofetuine (AF) through its hydroxysuccinimidic ester”, which “hepatic targeting of ara-A” value [1] is on record?
**A.** pharmacologically active in producing in the mouse a hepatic targeting of ara-A

**Q.** With `Nc1ncnc2c1ncn2[C@@H]1O[C@H](COP(=O)(O)O)[C@@H](O)[C@@H]1O` [ara-AMP, adenine-9-beta-D-arabinofuranoside 5'monophosphate] as the compound, how does the virus replication [2] read?
**A.** inhibit the virus replication

**Q.** Which virus replication [2] does the source give for `Nc1ncnc2c1ncn2[C@@H]1O[C@H](CO)[C@@H](O)[C@@H]1O` [ara-A, adenine-9-beta-D-arabinoside] here?
**A.** inhibit the virus replication
